Data published in patent US20240016875A1, “SHAN-ZHA FOR THE TREATMENT OF DEPRESSION AND ANXIETY DISORDERS” (THE OPEN UNIVERSITY, priority 2020, published 2024).

How the values were obtained:
[1] = test system: BDNF; experiment: Hippocampal BDNF levels (ELISA), Example 7; format: in vivo; conditions: stressed mice; 30 mg/kg (escitalopram 15 mg/kg) i.p., 3 weeks; vs vehicle
Method: Assessment of brain BDNF levels. Tissues are homogenized in cold extraction buffer (Tris-buffered saline, pH 8.0, with 1% NP-40, 10% glycerol, 5 mM sodium metavanadate, 10 mM PMSF, 100 mg/ml aprotinin and 10 mg/ml leupeptin). Homogenates are acidified with 0.1 M HCl (pH 3.0), incubated at room temperature (22-24° C.) for 15 min, and neutralized with 0.1 M NaOH (pH 7.6). Homogenates are then microfuged at 7,000 g for 10 min. BDNF levels in the supernatant are evaluated using sandwich ELISA.

[2] = test system: stressed mice; experiment: Tail Suspension Test (TST), UCMS-stressed mice, Example 7; format: in vivo; conditions: 30 mg/kg (escitalopram 15 mg/kg) i.p., 3 weeks, vs vehicle
Method: Animals. ICR outbred mice (Envigo RMS (Harlen), Israel) are kept in the vivarium of the Open University lab in Hadassah medical center, Jerusalem. Mice are kept on a reversed 12 h light/dark cycle and given ad libitum access to food and water. All experiments are performed during the dark phase under red light (7:00-19:00). All experiments have been approved by the committee for animal care and use according to the NIH guidelines. Drugs. Drugs are dissolved in saline and 1% DMSO to the desired concentration and administered i.p. Herbal mixture and Shan-zha (30 mg/kg) will be prepared by dissolving each component (KPC Products, Inc., CA, USA) to a final concentration of 0.47 mg/ml. […] Unpredictable chronic mild stress (UCMS). Mice are exposed to UCMS for 4 weeks at the age of 4 weeks as previously described. Tail Suspension Test (TST). This test is based upon the evaluation of immobility as a measure of behavioral despair and are performed as previously described. Depressive-like behavior are expressed as the time the mouse was immobile.

CN(C)CCC[C@@]1(c2ccc(F)cc2)OCc2cc(C#N)ccc21 [escitalopram]
hippocampal BDNF levels [1]: Significant elevations in hippocampal BDNF levels
depressive-like behavior in the TST [2]: exhibited reduced depressive-like behavior in the TST compared to vehicle-treated stressed mice
